The values that follow come from patent US9394297B2, “Amides as pim inhibitors” (AMGEN INC., priority 2012, dated 2016).

The term IC50 denotes the point on the concentration scale where inhibition reaches its midpoint.

Experiment [1] has as its target Pim-1 (Homo sapiens (Human), UniProt P11309). Kind of experiment: Pim-Mn enzyme assay (HTRF, 384-well), Pim-1. In kind it is biochemical. The following applies: read-out: Pim-1-Mn IC50 IP. In general terms: In TR-FRET formats the signal depends on donor and acceptor labels being close together.
Experiment [2] concerns the target Pim-2 (Homo sapiens (Human), UniProt Q9P1W9). Put plainly: Pim-Mn enzyme assay (HTRF, 384-well), Pim-2. In kind it is biochemical. The conditions noted are these: read-out: Pim-2-Mn IC50 IP.
Where [3] appears, read: Pim-1 enzyme 5 pM, ATP 1.5 μM, BAD (S112) 0.5 μM, HTRF, 22-point curve.
The mark [4] stands for this setting: Pim-2 enzyme 0.5 pM, ATP 1.5 μM, BAD (S112) 0.5 μM, HTRF, 22-point curve.

Where two headings read alike, the source gives them in different places.

Chain of Pim-1 (P11309 whole entry): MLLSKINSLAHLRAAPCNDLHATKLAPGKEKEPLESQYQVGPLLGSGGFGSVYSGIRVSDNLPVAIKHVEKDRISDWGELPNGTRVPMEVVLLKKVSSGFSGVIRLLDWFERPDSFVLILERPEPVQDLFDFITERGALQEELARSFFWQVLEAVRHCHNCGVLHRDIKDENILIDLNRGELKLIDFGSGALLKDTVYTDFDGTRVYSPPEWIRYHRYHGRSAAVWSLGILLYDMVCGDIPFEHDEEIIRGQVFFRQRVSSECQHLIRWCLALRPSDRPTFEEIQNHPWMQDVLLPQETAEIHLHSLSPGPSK
Chain of Pim-2 (Q9P1W9 whole entry): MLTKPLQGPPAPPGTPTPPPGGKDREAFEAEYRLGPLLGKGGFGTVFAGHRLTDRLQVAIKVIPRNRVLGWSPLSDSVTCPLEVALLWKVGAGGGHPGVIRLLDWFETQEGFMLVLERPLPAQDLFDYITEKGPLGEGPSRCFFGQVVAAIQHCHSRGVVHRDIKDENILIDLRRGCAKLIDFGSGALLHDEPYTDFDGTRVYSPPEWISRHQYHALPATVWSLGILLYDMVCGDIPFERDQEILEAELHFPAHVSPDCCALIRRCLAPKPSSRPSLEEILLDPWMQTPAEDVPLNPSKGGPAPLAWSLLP

Take `Cc1nc2cccc(-c3cc4c([nH]3)CCNC4=O)c2nc1NC1CN(C)C1` [Example 243, 2-(2-methyl-3-((1-methyl-3-azetidinyl)amino)-5-quinoxalinyl)-1,5,6,7-tetrahydro-4H-pyrrolo[3,2-c]pyridin-4-one]: the figures for the IC50 in experiment [1] (setting [3]) and in experiment [2] (setting [4]) were 853 nM and 1050 nM, respectively.
Taken in the same sequence, the figures for `Cc1nc2cccc(-c3cc4c([nH]3)CCNC4=O)c2nc1NC1CNC1` [Example 150, 2-(3-(azetidin-3-ylamino)-2-methylquinoxalin-5-yl)-6,7-dihydro-1H-pyrrolo[3,2-c]pyridin-4(5H)-one] were 2 nM and 5.9 nM.
Taken in the same sequence, the figures for `C[C@H]1NC(=O)c2cc(-c3c(F)ccc4c(=O)n(C5CC5)c(NC5(C)CC5)nc34)[nH]c21` [Example 495, (R)-3-cyclopropyl-7-fluoro-8-(6-methyl-4-oxo-1,4,5,6-tetrahydropyrrolo[3,4-b]pyrrol-2-yl)-2-((1-methylcyclopropyl)amino)quinazolin-4(3H)-one] were 0.046 nM and 0.06 nM.
Taken in the same sequence, the figures for `Cc1nc2cccc(-c3cc4c([nH]3)CCNC4=O)c2nc1N[C@H]1C[C@@H](N(CCF)CCF)C1` [Example 476, 2-(3-(((1 s,3s)-3-(bis(2-fluoroethyl)amino)cyclobutyl)amino)-2-methylquinoxalin-5-yl)-6,7-dihydro-1H-pyrrolo[3,2-c]pyridin-4(5H)-one] were 2 nM and 12 nM.
Regarding `C[C@H]1NC(=O)c2cc(-c3cccc4c(=O)n(-c5cccnc5)c(NC(C)(C)C)nc34)[nH]c21` [Example 482, 2-(tert-butylamino)-8-((6R)-6-methyl-4-oxo-1,4,5,6-tetrahydropyrrolo[3,4-b]pyrrol-2-yl)-3-(3-pyridinyl)-4(3H)-quinazolinone], the 50% inhibitory concentration (IC50) in experiment [1] (setting [3]) is 0.718 nM; in experiment [2] (setting [4]) it was 2.77 nM.
Taken in the same sequence, the figures for `Cc1nc2cccc(-c3cc4c([nH]3)C(Cc3ccc(Cl)cc3)CNC4=O)c2nc1N` (racemic) [Example 273, rac-2-(3-amino-2-methyl-5-quinoxalinyl)-7-(4-chlorobenzyl)-1,5,6,7-tetrahydro-4H-pyrrolo[3,2-c]pyridin-4-one] were 39 nM and 19.1 nM.
Taken in the same sequence, the figures for `C[C@H]1NC(=O)c2cc(-c3cccc4cnc(NC5(C)CC5)nc34)[nH]c21` [Example 499, (6R)-6-methyl-2-(2-((1-methylcyclopropyl)amino)-8-quinazolinyl)-5,6-dihydropyrrolo[3,4-b]pyrrol-4(1H)-one] were 1 nM and 1.6 nM.
Taken in the same sequence, the figures for `Cc1nc2cccc(-c3cc4c([nH]3)C(C)CNC4=O)c2nc1NC1CC1` (single isomer, unassigned) [Example 161, 2-(3-(cyclopropylamino)-2-methylquinoxalin-5-yl)-7-methyl-6,7-dihydro-1H-pyrrolo[3,2-c]pyridin-4(5H)-one] were 0.8 nM and 0.7 nM.
In the case of `COC(=O)C(C)(C)Nc1nc2c(-c3cc4c([nH]3)CCNC4=O)cccc2nc1C` [Example 57, Methyl 2-methyl-N-(3-methyl-8-(4-oxo-4,5,6,7-tetrahydro-1H-pyrrolo[3,2-c]pyridin-2-yl)-2-quinoxalinyl)alaninate], the IC50 in experiment [1] (setting [3]) was 24.2 nM; in experiment [2] (setting [4]), 54.3 nM.
Taken in the same sequence, the figures for `C[C@H]1NC(=O)c2cc(-c3cccc4c(=O)n(C5CCOCC5)c(NC(C)(C)C)nc34)[nH]c21` [Example 514, (R)-2-(tert-butylamino)-8-(6-methyl-4-oxo-1,4,5,6-tetrahydropyrrolo[3,4-b]pyrrol-2-yl)-3-(tetrahydro-2H-pyran-4-yl)quinazolin-4(3H)-one] were 0.287 nM and 0.671 nM.
Taken in the same sequence, the figures for `Cc1nc2cccc(-c3cc4c([nH]3)CCNC4=O)c2nc1NC1(C(F)(F)F)CC1` [Example 258, 2-(2-methyl-3-((1-(trifluoromethyl)cyclopropyl)amino)quinoxalin-5-yl)-6,7-dihydro-1H-pyrrolo[3,2-c]pyridin-4(5H)-one] were 0.694 nM and 0.338 nM.
Taken in the same sequence, the figures for `Cc1nc2cccc(-c3cc4c([nH]3)CCNC4=O)c2nc1OCC(C)(C)C` [Example 152, 2-(2-methyl-3-(neopentyloxy)quinoxalin-5-yl)-6,7-dihydro-1H-pyrrolo[3,2-c]pyridin-4(5H)-one] were 54.2 nM and 44.7 nM.
As for `CC(C)(C)Nc1nc2c(-c3cc4c([nH]3)CCNC4=O)cccc2nc1-c1ccccc1` [Example 438, 2-(3-(tert-Butylamino)-2-phenylquinoxalin-5-yl)-6,7-dihydro-1H-pyrrolo[3,2-c]pyridin-4(5H)-one], the IC50 in experiment [1] (setting [3]) amounted to 3.1 nM; in experiment [2] (setting [4]), 12 nM.
Taken in the same sequence, the figures for `Cc1nc2cccc(-c3cc4c([nH]3)CCNC4=O)c2nc1NC1CCNCC1` [Example 53, 2-(2-methyl-3-(4-piperidinylamino)-5-quinoxalinyl)-1,5,6,7-tetrahydro-4H-pyrrolo[3,2-c]pyridin-4-one] were 0.6 nM and 2.4 nM.
`CC(C)Nc1nc2c(-c3cc4c([nH]3)[C@@H](C)NC4=O)c(F)ccc2c(=O)n1C1CC1` [Example 490, (R)-3-cyclopropyl-7-fluoro-2-(isopropylamino)-8-(6-methyl-4-oxo-1,4,5,6-tetrahydropyrrolo[3,4-b]pyrrol-2-yl)quinazolin-4(3H)-one]: the IC50 in experiment [1] (setting [3]) was 0.1 nM; in experiment [2] (setting [4]) it was 0.2 nM.
Taken in the same sequence, the figures for `CC(=O)N1CC[C@@H](Nc2nc3c(-c4cc5c([nH]4)CCNC5=O)cccc3nc2C)C1` [Example 64, 2-(3-(((3R)-1-acetyl-3-pyrrolidinyl)amino)-2-methyl-5-quinoxalinyl)-1,5,6,7-tetrahydro-4H-pyrrolo[3,2-c]pyridin-4-one] were 25.9 nM and 34.5 nM.
Taken in the same sequence, the figures for `CC[C@H]1NC(=O)c2cc(-c3cccc4c(=O)n(C5CC5)c(NC(C)(C)C)nc34)[nH]c21` [Example 511, (R)-2-(tert-butylamino)-3-cyclopropyl-8-(6-ethyl-4-oxo-1,4,5,6-tetrahydropyrrolo[3,4-b]pyrrol-2-yl)quinazolin-4(3H)-one] were 1 nM and 0.7 nM.
Taken in the same sequence, the figures for `Cc1nc2cccc(-c3cc4c([nH]3)CCNC4=O)c2nc1N[C@H]1C[C@@H](O)C1` [Example 439, 2-(3-((cis-3-Hydroxycyclobutyl)amino)-2-methylquinoxalin-5-yl)-6,7-dihydro-1H-pyrrolo[3,2-c]pyridin-4(5H)-one] were 2.5 nM and 1.4 nM.
Take `Cc1nc2cccc(-c3cc4c([nH]3)CCNC4=O)c2nc1N[C@H]1CCNC1` [Example 55, 2-(2-methyl-3-((3S)-3-pyrrolidinylamino)-5-quinoxalinyl)-1,5,6,7-tetrahydro-4H-pyrrolo[3,2-c]pyridin-4-one]: the IC50 in experiment [1] (setting [3]) was determined as 0.7 nM; in experiment [2] (setting [4]), 3 nM.
As to `CC(=O)N1CC[C@H](Nc2nc3c(-c4cc5c([nH]4)CCNC5=O)cccc3nc2C)C1` [Example 65, (S)-2-(3-((1-acetylpyrrolidin-3-yl)amino)-2-methylquinoxalin-5-yl)-6,7-dihydro-1H-pyrrolo[3,2-c]pyridin-4(5H)-one], the IC50 in experiment [1] (setting [3]) was determined as 57.8 nM; in experiment [2], 72.8 nM.
Consider `CC[C@H]1NC(=O)c2cc(-c3cccc4c(=O)n(C)c(NC(C)(C)C)nc34)[nH]c21` [Example 505, (R)-2-(tert-butylamino)-8-(6-ethyl-4-oxo-1,4,5,6-tetrahydropyrrolo[3,4-b]pyrrol-2-yl)-3-methylquinazolin-4(3H)-one], for which the IC50 in experiment [1] (setting [3]) and in experiment [2] (setting [4]) was 0.8 nM throughout.
For `Cn1c(Nc2ccccc2)nc2c(-c3cc4c([nH]3)CCNC4=O)cccc2c1=O` [Example 266, 3-methyl-8-(4-oxo-4,5,6,7-tetrahydro-1H-pyrrolo[3,2-c]pyridin-2-yl)-2-(phenylamino)quinazolin-4(3H)-one], the IC50 in experiment [1] (setting [3]) was found to be 3.1 nM; in experiment [2] (setting [4]) it was 2 nM.
As for `Cc1nc2cccc(-c3cc4c([nH]3)CCNC4=O)c2nc1NS(C)(=O)=O` [Example 240, N-(3-methyl-8-(4-oxo-4,5,6,7-tetrahydro-1H-pyrrolo[3,2-c]pyridin-2-yl)quinoxalin-2-yl)methanesulfonamide 2,2,2-trifluoroacetate], the figures for the IC50 in experiment [1] and in experiment [2] were 87.5 nM and 9.6 nM, respectively.
For the molecule `Cc1nc2cccc(-c3cc4c([nH]3)[C@@H](C)NC4=O)c2nc1N[C@H]1CCC[C@@H](NC(=O)[C@@H](CO)NC(=O)OC(C)(C)C)C1` [Example 491, tert-butyl((1R)-1-(hydroxymethyl)-2-(((1R,3S)-3-((3-methyl-8-((6R)-6-methyl-4-oxo-1,4,5,6-tetrahydropyrrolo[3,4-b]pyrrol-2-yl)-2-quinoxalinyl)amino)cyclohexyl)amino)-2-oxoethyl)carbamate], the figures for the IC50 in experiment [1] (setting [3]) and in experiment [2] (setting [4]) were 20 nM and 10 nM, respectively.
Taken in the same sequence, the figures for `Cc1nc2cccc(-c3cc4c(=O)[nH]cnc4[nH]3)c2nc1F` [Example 264, 6-(3-fluoro-2-methylquinoxalin-5-yl)-3H-pyrrolo[2,3-d]pyrimidin-4(7H)-one] were 1120 nM and 1690 nM.
Taken in the same sequence, the figures for `C[C@H]1NC(=O)c2cc(-c3cccc4c(=O)n(CCCS(C)(=O)=O)c(NC(C)(C)C)nc34)[nH]c21` [Example 508, (R)-2-(tert-butylamino)-8-(6-methyl-4-oxo-1,4,5,6-tetrahydropyrrolo[3,4-b]pyrrol-2-yl)-3-(3-(methylsulfonyl)propyl)quinazolin-4(3H)-one] were 0.9 nM and 0.3 nM.
Consider `Cc1nc2cccc(-c3cc4c([nH]3)CCNC4=O)c2nc1N[C@H]1CCN(C(=O)OC(C)(C)C)C1` [Example 49, (S)-tert-butyl-3-((3-methyl-8-(4-oxo-4,5,6,7-tetrahydro-1H-pyrrolo[3,2-c]pyridin-2-yl)quinoxalin-2-yl)amino)pyrrolidine-1-carboxylate], for which the IC50 in experiment [1] (setting [3]) worked out at 47.2 nM; in experiment [2] (setting [4]), 144 nM.
